Laboratory results reported in patent publication US12116343B2, “Inhibitors of APOL1 and methods of using same” (Vertex Pharmaceuticals Incorporated, priority 2020, dated 2024).

biological target: T1, G1 APOL1 (Homo sapiens, UniProt O14791, I384M/S342G); assay: Acute APOL1 Thallium Assay with inducible stable clones of HEK 293 cells; type: cell-based; conditions: HEK 293 T-Rex cells expressing G1 APOL1; read-out: Thallium Assay (IC50)
T1 construct: expressed in transfected cells
T1 sequence (O14791 28-398 S342G/I384M): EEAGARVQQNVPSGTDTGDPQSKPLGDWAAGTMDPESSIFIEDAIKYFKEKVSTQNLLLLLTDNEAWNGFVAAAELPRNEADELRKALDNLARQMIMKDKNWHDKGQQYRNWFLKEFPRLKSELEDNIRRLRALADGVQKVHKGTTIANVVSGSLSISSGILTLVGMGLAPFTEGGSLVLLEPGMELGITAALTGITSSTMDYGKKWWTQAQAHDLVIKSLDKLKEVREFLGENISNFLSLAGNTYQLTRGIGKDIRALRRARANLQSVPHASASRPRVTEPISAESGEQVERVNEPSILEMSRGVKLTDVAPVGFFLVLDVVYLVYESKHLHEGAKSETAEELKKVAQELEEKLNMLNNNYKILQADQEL
Summary of the method: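 Tetracycline-inducible HEK293 T-Rex clone G1 DC3.25 expressing G1 APOL1, plated at 26000 cells/well in Opti-MEM with tetracycline induction. APOL1 pore activity read on FLIPR as fluorescence increase from Tl+ influx into cells loaded with a Tl+-sensitive AM-ester dye.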

Row | Structure (SMILES) | IC50 [µM]
1 | CN(CC1(CO)CCOCC1)C(=O)[C@H]1C[C@H](c2c(-c3ccc(F)cc3)[nH]c3c(F)cc(F)cc32)C1 [Compound 120] | > 1
2 | NC(=O)[C@H]1C[C@H](c2c(-c3ccc(F)cc3)[nH]c3c(F)cc(F)cc32)C1 [Compound 169] | 0.25 to 1
3 | O=C1CCC(NC(=O)[C@H]2C[C@H](c3c(-c4ccc(F)cc4)[nH]c4c(F)cc(F)cc43)C2)C1 (stereo partly drawn) [Compound 159] | > 1
4 | O=C([C@H]1C[C@H](c2c(-c3ccc(F)cc3)[nH]c3c(F)cc(F)cc32)C1)N1C[C@H]2C[C@@]2(CO)C1 [Compound 98] | > 1
5 | O=C([C@H]1C[C@H](c2c(-c3ccc(F)cc3)[nH]c3c(F)cc(F)cc32)C1)N1C[C@@H]2[C@@H](CO)[C@@H]2C1 [Compound 99] | > 1
6 | CC(O)CN(CCO)C(=O)[C@H]1C[C@H](c2c(-c3ccc(F)cc3)[nH]c3c(F)cc(F)cc32)C1 (mixture of isomers) [Compound 129] | 0.25 to 1
7 | CCN(CCO)C(=O)[C@H]1C[C@H](c2c(-c3ccc(F)cc3)[nH]c3c(F)cc(F)cc32)C1 [Compound 124] | 0.25 to 1
8 | CCN(C(=O)[C@H]1C[C@H](c2c(-c3ccc(F)cc3)[nH]c3c(F)cc(F)cc32)C1)C(C)CO (mixture of isomers) [Compound 111] | > 1
9 | O=C([C@H]1C[C@H](c2c(-c3ccc(F)cc3)[nH]c3c(F)cc(F)cc32)C1)N1CCCC[C@@H]1CO [Compound 107] | > 1
10 | C[C@H]1CN(C(=O)[C@H]2C[C@H](c3c(-c4ccc(F)cc4)[nH]c4c(F)cc(F)cc43)C2)CC[C@@H]1O [Compound 116] | > 1
11 | O=C([C@H]1C[C@H](c2c(-c3ccc(F)cc3)[nH]c3c(F)cc(F)cc32)C1)N1CC(O)C(CO)C1 (stereo partly drawn) [Compound 138] | > 1
12 | O=C(O)CNC(=O)[C@H]1C[C@H](c2c(-c3ccc(F)cc3)[nH]c3c(F)cc(F)cc32)C1 [Compound 10] | > 1
13 | O=C([C@H]1C[C@H](c2c(-c3ccc(F)cc3)[nH]c3c(F)cc(F)cc32)C1)N1CCC[C@@H](CO)C1 [Compound 109] | > 1
14 | CCC1(O)CN(C(=O)[C@H]2C[C@H](c3c(-c4ccc(F)cc4)[nH]c4c(F)cc(F)cc43)C2)C1 [Compound 112] | > 1
15 | CC1(C)CN(C(=O)[C@H]2C[C@H](c3c(-c4ccc(F)cc4)[nH]c4c(F)cc(F)cc43)C2)CC1O (stereo partly drawn) [Compound 102] | > 1
16 | O=C([C@H]1C[C@H](c2c(-c3ccc(F)cc3)[nH]c3c(F)cc(F)cc32)C1)N1CCCC[C@H]1CO [Compound 146] | > 1
17 | CC(CO)N1CCN(C(=O)[C@H]2C[C@H](c3c(-c4ccc(F)cc4)[nH]c4c(F)cc(F)cc43)C2)CC1 (mixture of isomers) [Compound 122] | > 1

Row | Structure (SMILES) | IC50 [µM]
18 | O=C(NCC1(O)CCC1)[C@H]1C[C@H](c2c(-c3ccc(F)cc3)[nH]c3c(F)cc(F)cc32)C1 [Compound 143] | > 1
19 | CN1CCC(NC(=O)[C@H]2C[C@H](c3c(-c4ccc(F)cc4)[nH]c4c(F)cc(F)cc43)C2)C1=O (stereo partly drawn) [Compound 7] | 0.25 to 1
20 | O=C([C@H]1C[C@H](c2c(-c3ccc(F)cc3)[nH]c3c(F)cc(F)cc32)C1)N1CCC2(COC2)C1 [Compound 103] | > 1
21 | O=C([C@H]1C[C@H](c2c(-c3ccc(F)cc3)[nH]c3c(F)cc(F)cc32)C1)N1CCC[C@H](O)C1 [Compound 105] | > 1
22 | CO[C@H]1CCN(C(=O)[C@H]2C[C@H](c3c(-c4ccc(F)cc4)[nH]c4c(F)cc(F)cc43)C2)C1 [Compound 95] | > 1
23 | O=C([C@H]1C[C@H](c2c(-c3ccc(F)cc3)[nH]c3c(F)cc(F)cc32)C1)N1CC2(CC(O)C2)C1 [Compound 137] | > 1
24 | O=C([C@H]1C[C@H](c2c(-c3ccc(F)cc3)[nH]c3c(F)cc(F)cc32)C1)N1CCC(CCO)CC1 [Compound 134] | > 1
25 | CC(C)N(CCO)C(=O)[C@H]1C[C@H](c2c(-c3ccc(F)cc3)[nH]c3c(F)cc(F)cc32)C1 [Compound 123] | > 1
26 | O=C(NCCOCCO)[C@H]1C[C@H](c2c(-c3ccc(F)cc3)[nH]c3c(F)cc(F)cc32)C1 [Compound 125] | < 0.25
27 | NC(=O)[C@H](CO)NC(=O)[C@H]1C[C@H](c2c(-c3ccc(F)cc3)[nH]c3c(F)cc(F)cc32)C1 [Compound 144] | 0.25 to 1
28 | O=C(NCc1cnco1)[C@H]1C[C@H](c2c(-c3ccc(F)cc3)[nH]c3c(F)cc(F)cc32)C1 [Compound 170] | 0.25 to 1
29 | O=C([C@H]1C[C@H](c2c(-c3ccc(F)cc3)[nH]c3c(F)cc(F)cc32)C1)N1CCCC[C@@H]1CCO [Compound 156] | > 1
30 | CCC(O)(CCCO)CNC(=O)[C@H]1C[C@H](c2c(-c3ccc(F)cc3)[nH]c3c(F)cc(F)cc32)C1 (stereo partly drawn) [Compound 119] | > 1
31 | NC(=O)[C@@H]1CCN(C(=O)[C@H]2C[C@H](c3c(-c4ccc(F)cc4)[nH]c4c(F)cc(F)cc43)C2)C1 [Compound 135] | > 1
32 | CN(C)C[C@@H]1CCN(C(=O)[C@H]2C[C@H](c3c(-c4ccc(F)cc4)[nH]c4c(F)cc(F)cc43)C2)C[C@H]1O [Compound 110] | > 1
33 | O=C(N[C@@H](CO)C(F)(F)F)[C@H]1C[C@H](c2c(-c3ccc(F)cc3)[nH]c3c(F)cc(F)cc32)C1 [Compound 163] | 0.25 to 1
